According to US11512073B2, “Benzimidazole derivatives, pharmaceutical composition comprising the same, and use thereof” (Chongqing University of Arts and Sciences, priority 2020, dated 2022):
Residues, ends and D or L forms follow the SMILES beside them. *: point of attachment. Cbz = O=C(OCc1ccccc1)*; CH2F = FC*

Test system: TNBC cells
Assay: MTT cell viability assay, statements for both TNBC lines
Format: cell-based, Human
Settings: Z-VAD-FMK 20 μM with compound 7a 20 μM, 48 h
Method: Compounds were dissolved in a hydrous dimethylsulfoxide (DMSO, Life technologies) to obtain a 50 mM stock solution, which was then added to the culture medium at a concentration range of 6.25-100 μM. […] Z-VAD-FMK was purchased from Selleckchem (Houston, Tex.); The reagents including 3-(4,5-dimethylthiazol-2-yl)-2,5-diphenyltetrazolium bromide (MTT), dimethyl sulfoxide (DMSO), penicillin, streptomycin, propidium iodide (PI) were purchased from Sigma-Aldrich (MO, USA); All the primary antibodies used in this study were from Cell Signaling Technology (MA, USA) and the secondary antibodies were from LI-COR Biosciences (NE, USA).
Human triple negative breast cancer cell lines MDA-MB-231 and MDA-MB-468 were purchased from the American Type Culture Collection (ATCC, VA, USA). These cells were cultured in high-glucose DMEM (Gibco, USA) supplemented with 10% fetal bovine serum (FBS, Gibco) and 1% penicillin/streptomycin (Gibco) at 37° C. in a humidified incubator containing 5% CO2.
The antiproliferative activity of compounds was measured with the MTT assay. […] The absorbance value was determined at 570 nm using a microplate reader (Bio-Tek, VT, USA). Data were analyzed by GraphPad Prism 6. […]

## COC(=O)C[C@H](NC(=O)[C@H](C)NC(=O)[C@@H](NC(=O)OCc1ccccc1)C(C)C)C(=O)CF [Z-VAD-FMK, reference compound] (Cbz-Val-Ala-Asp(OMe)-CH2F)
  rescue of compound 7a-induced apoptosis (cell viability): partially rescue cell apoptosis induced by compound 7a
